The record followed here is patent publication US20260207711A1, “FORMULATIONS, DEVICES AND METHODS FOR A GLP-1 AGONIST” (Nano Precision Medical, Inc., priority 2023, published 2026).

The series can be described thus: Stability of the formulation remaining in terminated devices (purity, remaining concentration, mass balance by HPLC). The class given is physicochemical. Particulars: over 77 days; starting purity of semaglutide as received 94%. From the text: Each trace in the figure represents a separate measurement of a separate vial. At the end of the time period devices were terminated, disassembled and the internal compositions measured.
The mass balance numbers indicate that no appreciable amount of drug was lost in the form of degradants undetectable by HPLC, such a fibrils.
[…] Purities were […].

Regarding semaglutide, the “total loss in purity” value is 7-8%.
